In assay [1] the target is T1, Aβ(1–42) aggregates (Homo sapiens, UniProt P05067).
T1 construct: made in house; host or cells: chemical synthesis (Fmoc solid phase peptide synthesis)
As to the kind of experiment: In vitro dot blot assay with oligomer-specific antibody A11. The class given is biochemical. The note with it: Aβ(1–42) disaggregation samples, Fig. S1. As for the experimental part: (§1) To analyze total and oligomeric amyloid levels, protein samples (12 μg in 2 μL) and prepared in vitro disaggregation assay samples (2 μL) were directly blotted on nitrocellulose membranes. After blocking with 5% skim milk in TBS-T, the membranes were probed with anti-6E10 antibody (1:1,000, Biolegend 803003) and anti-A11 antibody (1:2000, Invitrogen AHB0052) at 4°C overnight. HRP-conjugated goat anti-mouse antibody (1:10,000, Bethyl Laboratories A90-116P) and anti-rabbit secondary antibody (1:10,000, Bethyl Laboratories A120-101P) were used for 6E10 and A11, respectively. Proteins were detected using an ECL kit (Thermo Fisher Scientific, USA). Membranes were washed with TBS-T in between steps, three times for 10 min.

The test system of a further assay is 5XFAD mice. The experiment in a line: Dot blot assay (6E10, A11) of soluble brain lysates of 5XFAD mice, incl. MWCO filtration. The class given is in vivo, mouse. Conditions: 50 mg/kg/day, 5 weeks; for Total Aβ (6E10) in cortical lysates after GdnHCl denaturation and 100 kDa MWCO filtration: APP removed. As for the experimental part:
To test the in vivo efficacy of YIAD001 and YIAD002, female 5XFAD mice (n = 25) and female wildtype mice (n = 7) were assessed at the age of 4.5 months. YIAD compounds were dissolved in DMSO and diluted in drinking water to a final concentration of 50 mg/kg/day (5% DMSO, 5% Tween) for oral administration. The three compounds, YIAD001, YIAD002, and YIAD003, were freely administered via drinking water to 4.5-month-old 5XFAD mice (n = 6 for each group) for 5 weeks. As a control, 5% DMSO, 5% Tween in drinking water was provided ad libitum to littermate 5XFAD mice (n = 7) and wildtype mice (n = 7) for 5 weeks.
After the administration period, the mice were deeply anaesthetized with 4% avertin through intraperitoneal injection and transcardially perfused with 0.9% saline. Subsequently, the mice were sacrificed for brain excision. Each collected brain was divided through the mid-sagittal section; the hippocampal and cortical regions were dissected from one half and stored at −80°C for subsequent brain lysates, while the other half was immersed in 4% paraformaldehyde (pH 7.4) for 24 h and 30% sucrose for 48 h at 4°C and subsequently deep-froze at −80°C for immunohistochemistry.
Isolated cortical and hippocampal tissue samples were homogenized in ice-cold RIPA buffer with protease inhibitor cocktail and phosphatase inhibitor cocktail. Lysed tissues were incubated in ice for 30 min and subsequently centrifuged at 14,000 rpm at 4°C for 30 min. The supernatants of the brain lysates were collected and soluble protein concentrations were quantified with the Pierce BCA protein assay kit (Thermo Fisher Scientific, USA).
as §1
To exclusively investigate soluble Aβ levels in cortical lysates, guanidinium hydrochloride (GdnHCl) in a lysis buffer (5.0 M GdnHCl, 50 mM Tris-HCl, pH 8.0) was utilized to solubilize and denature endogenous Aβ aggregates prior to filtration. The homogenates were incubated with agitation for 3 h at RT. The incubated samples were then quantified to prepare protein samples (10 μg in 4 μL) and were filtered through a 100 kDa molecular weight cut-off (MWCO) filter, centrifuged at 14,000 rpm at RT for 30 min, to remove APP. For subsequent dot blot assay, total […] of the filtrate was spotted onto a nitrocellulose membrane and probed with anti-6E10 antibody (1:1000, Biolegend 803003).

The target in assay [2] is T1, Aβ(1–42) aggregates. As to the kind of experiment: ThT fluorescence Aβ(1–42) disaggregation assay. The class given is biochemical. Conditions: for Decrease of fibrillar Aβ(1–42) aggregates (ThT fluorescence): Aβ(1–42) 25 μM pre-aggregated 37°C 3 days, compound added for additional 3 days, concentration of the printed value not stated; for EC50: pre-aggregated Aβ(1–42) 25 μM, 3 + 3 days, 37°C. As to the method: (§2) ThT fluorescence was used to assess the in vitro inhibition of Aβ(1–42) and disaggregation of Aβ(1–42), Aβ(1–40), Aβ(pE3-42), recombinant tau K18, and tau repeats R1, R2, R3, R4 by YIAD compounds. In house synthetic Aβ(1–42) was dissolved in DMSO (1 mM, 100% DMSO) and diluted to 20-fold in deionized water to make 50 μM Aβ(1–42) stocks (5% DMSO). YIAD compounds were first dissolved in DMSO (100 mM, 100% DMSO) and serially diluted with deionized water to make YIAD stocks with concentrations of 1, 10, 100, and 1000 μM (10% DMSO). For the Aβ(1–42) inhibition assay, monomeric Aβ(1–42) stocks and YIAD stocks were co-incubated at 37°C for 3 days. For Aβ(1–42) disaggregation assay, monomeric Aβ(1–42) stocks were preincubated at 37°C for three days to form Aβ(1–42) aggregates, and subsequently, YIAD stocks were added for an additional 3 days. For Aβ(1-40) disaggregation assays, Aβ(1–40) (50 μM, 5% DMSO) was preincubated at 37°C for 3 days to induce aggregation, and co-incubated with YIAD001 and YIAD002 for an additional 3 days. For Aβ(pE3-42) disaggregation assays, in house synthetic Aβ(pE3-42) (50 μM, 5% DMSO) was preincubated at 37°C for 1 day and co-incubated with YIAD002 for an additional 3 days. For tau K18 disaggregation assay, recombinant tau K18 fragments (35 μM) were dissolved in PBS with 0.1 mg/mL of heparin and 100 μM of DTT, then pre-aggregated at 37°C for 3 days. Then, YIAD stocks were added to aggregated K18 fragments for an additional 3 days. For tau repeat disaggregation assays, tau repeats (R1, R2, R3, R4) (35 μM) were dissolved in PBS with 0.1 mg/mL of heparin and 100 μM of DTT, then pre-aggregated at 37°C for 1 day. Then, YIAD002 was added to aggregated repeats for an additional 3 days. Prior to fluorescence intensity measurement, ThT solution (5 μM) was prepared by dissolving ThT, purchased from Sigma-Aldrich (MO, USA) in 50 mM glycine buffer (pH 8.5). To quantify the effect of inhibition and disaggregation, 25 μL of all samples and 75 μL of ThT solution were loaded into a half-area 96-well black plate in triplicate.

For another assay, the target named is T2, Aβ(1–42) (Homo sapiens, UniProt P05067).
T2 construct: Synthesized monomeric Aβ(1–42), […]; […]; IA; made in house; host or cells: chemical synthesis (Fmoc solid phase peptide synthesis)
T2 sequence (P05067 672-713 limits assumed): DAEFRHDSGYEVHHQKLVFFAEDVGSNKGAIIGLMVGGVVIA
The experiment in a line: ThT fluorescence Aβ(1–42) aggregation inhibition assay. The class given is biochemical. The note with it: compounds at 0.5, 5, 50, 500 μM co-incubated with monomeric Aβ(1–42) 25 μM, 37°C, 3 days; concentration of the printed value not stated. As to the method: as §2

Data on 2 compounds can be found in article PMC9706920, “Aryloxypropanolamine targets amyloid aggregates and reverses Alzheimer-like phenotypes in Alzheimer mouse models” (Alzheimer's Research & Therapy, 2022).

SMILES strings stand for the structures.

T1 sequence (P05067 672-713 limits assumed): as above

The term EC50 denotes the concentration at which the effect is half-maximal. Consider `CCC(C)(C)c1ccc(OCC(O)CN2CCOCC2)c(C(C)(C)CC)c1.Cl` (centres unmarked) [YIAD001, 4-(3-(2,4-Di-tert-pentylphenoxy)-2-hydroxypropyl)morpholin-4-ium chloride], for which, at Aβ(1–42) aggregates [1], the “A11-detected amyloid oligomers, in vitro disaggregation” value is recorded as “dissociate Aβ(1–42) aggregates”. Further, in the assay on 5XFAD mice, the “Total Aβ (6E10) in cortical lysates after GdnHCl denaturation and 100 kDa MWCO filtration” value is “reduction of Aβ”. Further, in the assay with 5XFAD mice (soluble fraction), the “6E10-detected total Aβ, cortical lysates” value is recorded as “significantly reduced”; the “6E10-detected total Aβ, hippocampus” value is on record as “not significantly changed”; the “A11-detected oligomer levels, cortical lysates” value is “trend of reduction”. For the same compound, at Aβ(1–42) aggregates [2], the “Decrease of fibrillar Aβ(1–42) aggregates (ThT fluorescence)” value is on record as 82.61% and the half-maximal effective concentration (EC50) stood at 91.8 µM. Also, the “Inhibition of Aβ(1–42) fibrillation (ThT fluorescence)” value on Aβ(1–42) was 82.55%.

Turning to `CCC(C)(C)c1ccc(OCC(O)CN2CCCC2)c(C(C)(C)CC)c1.Cl` (centres unmarked) [YIAD002, 1-(3-(2,4-Di-tert-pentylphenoxy)-2-hydroxypropyl)pyrrolidin-1-ium chloride], the “A11-detected amyloid oligomers, in vitro disaggregation” value on Aβ(1–42) aggregates [1] was “dissociate Aβ(1–42) aggregates”. In addition, the “Total Aβ (6E10) in cortical lysates after GdnHCl denaturation and 100 kDa MWCO filtration” value with 5XFAD mice is listed as “reduction of Aβ”. Besides, in the assay with 5XFAD mice (soluble fraction), the “6E10-detected total Aβ, cortical lysates” value is “significantly reduced”; the “6E10-detected total Aβ, hippocampus” value is “not significantly changed”; the “A11-detected oligomer levels, cortical lysates” value is recorded as “trend of reduction”; the “Oligomeric Aβ content (A11), hippocampus” value is “significantly reduced”. In addition, at Aβ(1–42) aggregates [2], the “Decrease of fibrillar Aβ(1–42) aggregates (ThT fluorescence)” value turned out to be 99.94% and the EC50 was found to be 16.9 µM. At Aβ(1–42), the “Inhibition of Aβ(1–42) fibrillation (ThT fluorescence)” value came to 98.15%.
